Assay results: US8507684B2, “1-cyclopropyl-8-methyl-7-[5-methyl-6-(methylamino)-3-pyridinyl]-4-oxo-1,4-dihydro-3-quinolinecarboxylic acid salts” (Ferrer Internacional S.A., priority 2010, dated 2013)

Experiment: Aqueous solubility of the salts determined by HPLC
Type: physicochemical
Details: for pH: pH of Table 2 for the aqueous solubility samples (water, 2 h at 20° C.); for solubility at 2 h: thermodynamic from solid, read-out: Solubility in H2O
Description: To determine the aqueous solubility of the salts, suspensions of the salts were shaken 2 h at 20° C. and 400 rpm. Afterwards the mixtures were filtered (0.1 μm centrifuge filter) and the concentrations were determined by HPLC.

[1] = suspension in water shaken 2 h at 20° C. and 400 rpm, filtered (0.1 μm), concentration by HPLC

| Molecule | pH | Solubility in H2O [1] [mg/mL] | solubility at 2 h [1] [mg/mL] | solubility in water (in words) (general statement, no conditions given) |
| --- | --- | --- | --- | --- |
| 1-Cyclopropyl-8-methyl-7-[5-methyl-6-(methylamino)-3-pyridinyl]-4-oxo-1,4-dihydro-3-quinolinecarboxylic acid hemi-fumarate salt | 4.8 | 0.0897 | – | – |
| CNc1ncc(-c2ccc3c(=O)c(C(=O)O)cn(C4CC4)c3c2C)cc1C.O=C(O)CC(O)(CC(=O)O)C(=O)O [Citrate, 1-Cyclopropyl-8-methyl-7-[5-methyl-6-(methylamino)-3-pyridinyl]-4-oxo-1,4-dihydro-3-quinolinecarboxylic acid citrate salt] | 2.7 | – | 5.22 | – |
| CNc1ncc(-c2ccc3c(=O)c(C(=O)O)cn(C4CC4)c3c2C)cc1C [Free drug, 1-Cyclopropyl-8-methyl-7-[5-methyl-6-(methylamino)-3-pyridinyl]-4-oxo-1,4-dihydro-3-quinolinecarboxylic acid] | 8.5 | – | 0.019 | low solubility in water |
| CNc1ncc(-c2ccc3c(=O)c(C(=O)O)cn(C4CC4)c3c2C)cc1C.Cl.O [Hydrochloride monohydrate, 1-Cyclopropyl-8-methyl-7-[5-methyl-6-(methylamino)-3-pyridinyl]-4-oxo-1,4-dihydro-3-quinolinecarboxylic acid hydrochloride monohydrate salt] | 2.8 | – | 2 | – |
| CNc1ncc(-c2ccc3c(=O)c(C(=O)O)cn(C4CC4)c3c2C)cc1C.O=C(O)C(O)C(O)C(=O)O [L-Tartrate, 1-Cyclopropyl-8-methyl-7-[5-methyl-6-(methylamino)-3-pyridinyl]-4-oxo-1,4-dihydro-3-quinolinecarboxylic acid L-tartrate salt] | 2.5 | – | 4.6 | – |
| CNc1ncc(-c2ccc3c(=O)c(C(=O)O)cn(C4CC4)c3c2C)cc1C.O=C(O)/C=C\C(=O)O [Maleate, 1-Cyclopropyl-8-methyl-7-[5-methyl-6-(methylamino)-3-pyridinyl]-4-oxo-1,4-dihydro-3-quinolinecarboxylic acid maleate salt] | 5.3 | – | 0.149 | – |
| CNc1ncc(-c2ccc3c(=O)c(C(=O)O)cn(C4CC4)c3c2C)cc1C.CS(=O)(=O)O [Mesylate, 1-Cyclopropyl-8-methyl-7-[5-methyl-6-(methylamino)-3-pyridinyl]-4-oxo-1,4-dihydro-3-quinolinecarboxylic acid mesylate salt] | 2.4 | – | 113 | – |
| CNc1ncc(-c2ccc3c(=O)c(C(=O)[O-])cn(C4CC4)c3c2C)cc1C.[K+] [Potassium, 1-Cyclopropyl-8-methyl-7-[5-methyl-6-(methylamino)-3-pyridinyl]-4-oxo-1,4-dihydro-3-quinolinecarboxylic acid potassium salt] | 9.8 | – | 109 | – |
| CNc1ncc(-c2ccc3c(=O)c(C(=O)[O-])cn(C4CC4)c3c2C)cc1C.[Na+] [Sodium, 1-Cyclopropyl-8-methyl-7-[5-methyl-6-(methylamino)-3-pyridinyl]-4-oxo-1,4-dihydro-3-quinolinecarboxylic acid sodium salt] | 9.0 | – | 159 | – |
